The values that follow come from patent US10301353B2, “Co-crystal of carfilzomib with maleic acid and process for the preparation of pure carfilzomib” (DR. REDDY'S LABORATORIES LIMITED, priority 2014, dated 2019).

Data set [1] is described as follows: storage stability of amorphous carfilzomib. The format is physicochemical. The settings on record: at 2-8° C. On the procedure:
Carfilzomib amorphous form obtained according to the process of the present application is stable at 2-8° C. for extended periods, i.e., more than 3 month.

In data set [2] the test system is solid and hematologic tumor cells. Particulars: cited from earlier work.
For data set [3], the system named is proteasome. The settings on record: in animals; cited from earlier work.
The test system of data set [4] is models of multiple myeloma, hematologic, and solid tumors. The settings on record: in animals; cited from earlier work.

Structures are written as SMILES.

Turning to `CC(C)C[C@H](NC(=O)[C@H](CCc1ccccc1)NC(=O)CN1CCOCC1)C(=O)N[C@@H](Cc1ccccc1)C(=O)N[C@@H](CC(C)C)C(=O)[C@@]1(C)CO1` [Carfilzomib amorphous form], the “stable for extended periods” value in data set [1] is “more than 3 month”.

Regarding `CC(C)C[C@H](NC(=O)[C@H](CCc1ccccc1)NC(=O)CN1CCOCC1)C(=O)N[C@@H](Cc1ccccc1)C(=O)N[C@@H](CC(C)C)C(=O)[C@@]1(C)CO1` [Carfilzomib, (2S)—N—((S)-1-((S)-4-methyl-1-((R)-2-methyloxiran-2-yl)-1-oxopentan-2-ylcarbamoyl)-2-phenylethyl)-2-((S)-2-(2-morpholinoacetamido)-4-phenylbutanamido)-4-methylpentanamide], the “activity in vitro in tumor cells” value in data set [2] was “antiproliferative and proapoptotic activities”. Besides, the “proteasome activity in blood and tissue” value in data set [3] is “inhibited proteasome activity”. For the same compound, the tumor growth result in data set [4] is “delayed tumor growth”.
